MIC data for one compound are collected here from patent EP0515141A1, “Novel process for the preparation of 8A-aza-8A-homoerythromycin cyclic lactams” (MERCK & CO. INC., priority 1991, dated 1992).

Common to all, as to test: liquid turbidimetric microtiter MIC assay
Common to all, as to assay type: cell-based

The test system of assay [1] is Streptococcus pyogenes MB 5406. The following applies: MB5406, brain heart infusion broth. The source says:
(§1) The antibacterial activities of compound (III) against a panel of aerobic Gram positive and negative bacteria is shown in the following Table. The assay employs a liquid turbidimetric microtiter method for the determination of the minimum inhibitory concentration (MIC) in brain heart infusion broth. […] The MIC is generally not an absolute value but rather a concentration ranged that falls within a two-fold dilution limit. Generally twelve two-fold dilutions of the test compound are employed with the initial concentration set at 128 mcg/ml.

In assay [2] the test system is Steptococcus viridans CL 2943. The following applies: brain heart infusion broth.
Text: as §1

In assay [3] the test system is Enterococcus faecalis MB 5407. As to conditions: MB5407, brain heart infusion broth.
Text: as §1

Assay [4] deals with Yersinia enterocoltica CL 1598. The following applies: CL1598, brain heart infusion broth.
Text: as §1

Assay [5] concerns Escherichia coli MB 4926. The following applies: MB4926, brain heart infusion broth.
Text: as §1

The test system of assay [6] is Pseudomonas stutzeri MB 1231. As to conditions: Stutzerimonas stutzeri, MB1231, brain heart infusion broth.
Text: as §1

Assay [7] has as its system Staphylococcus aureus MB 2865. As to conditions: MB2865, brain heart infusion broth.
Text: as §1

For assay [8], the system named is Streptococcus agalactiae CL 1343. As to conditions: CL1343, brain heart infusion broth.
Text: as §1

Assay [9] deals with Escherichia coli MB 2884. The following applies: MB2884, brain heart infusion broth.
Text: as §1

The subject of assay [10] is Streptococcus pyogenes MB 2874. The following applies: MB2874, brain heart infusion broth.
Text: as §1

Assay [11] has as its system Staphylococcus epidermidis MB 5414. The following applies: MB5414, brain heart infusion broth.
Text: as §1

Assay [12] deals with Klebsiella pneumoniae MB 4005. The following applies: MB4005, brain heart infusion broth.
Text: as §1

In assay [13] the test system is Enterococcus faecium MB 5416. As to conditions: MB5416, brain heart infusion broth.
Text: as §1

Assay [14] relates to Staphylococcus haemolyticus MB 5412. The following applies: MB5412, brain heart infusion broth.
Text: as §1

Assay [15] deals with Streptococcus pneumoniae CL 2883. The following applies: CL2883, brain heart infusion broth.
Text: as §1

≈ marks a conversion by molar mass, not a printed value.

For orientation: MIC means the least concentration at which growth counts as inhibited. Higher therefore signals a less susceptible organism. `CC[C@H]1OC(=O)[C@H](C)[C@@H](O[C@H]2C[C@@](C)(OC)[C@@H](O)[C@H](C)O2)[C@H](C)[C@@H](O[C@@H]2O[C@H](C)C[C@H](N(C)C)[C@H]2O)[C@](C)(O)C[C@@H](C)NC(=O)[C@H](C)[C@@H](O)[C@]1(C)O` [(III), 8a-aza-8a-homoerythromycin A]: the MIC in [1] stood at 128 µg/mL (≈ 171 µM); in assay [2] it was 4 µg/mL (≈ 5.34 µM); in assay [3], 16 µg/mL (≈ 21.4 µM); in assay [4], 64 µg/mL (≈ 85.5 µM); in [5], 4 µg/mL (≈ 5.34 µM); in assay [6], 0.12 µg/mL (≈ 0.16 µM). The minimal inhibitory concentration (MIC) in [7] is 1 µg/mL (≈ 1.34 µM); in [8], 0.25 µg/mL (≈ 0.334 µM); in assay [9], 32 µg/mL (≈ 42.7 µM); in assay [10], ≤ 0.06 µg/mL; in assay [11], 2 µg/mL (≈ 2.67 µM); in [12], 64 µg/mL (≈ 85.5 µM). The MIC was ≤ 0.06 µg/mL in [13], 2 µg/mL (≈ 2.67 µM) in assay [14] and ≤ 0.06 µg/mL in assay [15].
